The record followed here is patent US20170217931A1, “COMPOUNDS FOR USE IN ANTHELMINTHIC TREATMENT” (Bayer Animal Health GMBH, priority 2014, published 2017).

As usually defined, the mortality is the percentage killed.

Read-outs that look alike come from different tables or passages of the source.

Series [1] is described as follows: Log P by HPLC on reversed phase columns, acidic range (EEC directive 79/831 Annex V.A8). In kind it is physicochemical. The protocol: Measurement of Log P values was performed according to EEC directive 79/831 Annex V.A8 by HPLC (High Performance Liquid Chromatography) on reversed phase columns with the following methods: • [^a] Log P value is determined by measurement of LC-UV, in an acidic range, with 0.1% formic acid in water and acetonitrile as eluent (linear gradient from 10% acetonitrile to 95% acetonitrile). • [^b] Log P value is determined by measurement of LC-UV, in a neutral range, with 0.001 molar ammonium acetate solution in water and acetonitrile as eluent (linear gradient from 10% acetonitrile to 95% acetonitrile).
Calibration was done with straight-chain alkan-2-ones (with 3 to 16 carbon atoms) with known Log P values (measurement of Log P values using retention times with linear interpolation between successive alkanones). Lambda-max-values were determined using UV-spectra from 200 nm to 400 nm and the peak values of the chromatographic signals.

The subject of another series is Haemonchus contortus. Description: microbe, parasite or virus in culture. In kind it is cell-based. The conditions noted are these: 120 h, read-out: activity (larval mortality). The protocol: (§1) To produce a suitable preparation of active compound, 10 mg of active compound are dissolved in 0.5 ml dimethyl sulfoxide, and the concentrate is diluted with “Ringer's solution” to the desired concentration.
Approximately 40 larvae of the red stomach worm (Haemonchus contortus) are transferred into a test tube containing compound solution. After 5 days percentage of larval mortality are recorded. 100% efficacy means all larvae are killed, 0% efficacy means no larvae are killed.

For the next series, the system named is Cooperia curticei. Kind of series: microbe, parasite or virus in culture. The conditions noted are these: 120 h, read-out: activity (larval mortality). It is filed as cell-based. The protocol: as §1
Approximately 40 nematode larvae (Cooperia curticei) are transferred into a test tube containing the compound solution. After 5 days percentage of larval mortality is recorded. 100% efficacy means all larvae are killed; 0% efficacy means no larvae are killed.

The mark [2] stands for this setting: reversed phase HPLC columns; LC-UV, acidic range, 0.1% formic acid in water and acetonitrile; read-out: logP a) (HCOOH).
Where [3] appears, read: 20 ppm, after 5 days, Cooperia curticei larvae.
[4] abbreviates: 4 ppm, after 5 days, Cooperia curticei larvae.
The mark [5] stands for this setting: 20 ppm, after 5 days, Haemonchus contortus larvae.

The compound `O=C(NCC(F)(F)c1ncc(-n2ccc(C(F)(F)F)n2)cc1Cl)c1ccccc1C(F)(F)F` [Example 11] came in with a chromatographic logP in series [1] of 3.63. Also, the mortality at 20 ppm with Haemonchus contortus (Haemonchus contortus) and with Cooperia curticei (Cooperia curticei) was 100% throughout. Also, the mortality at 4 ppm in the series with Cooperia curticei (Cooperia curticei) was at least 90%.
As for `O=C(NCC(F)(F)c1ncc(-c2cnn(CC(F)(F)F)c2)cc1Cl)c1nccnc1C(F)(F)F` [Example 17], the chromatographic logP in series [1] (setting [2]) worked out at 2.85. In addition, in the series on Cooperia curticei (setting [3]), the mortality at 20 ppm is 100%.
Take `O=C(NCC(F)(F)c1ncc(-n2ccc(C(F)(F)F)n2)cc1Cl)c1cccnc1C(F)(F)F` [Example 13]: the chromatographic logP in series [1] (setting [2]) was 3.27. In the series on Cooperia curticei (setting [4]), the mortality at 4 ppm was at least 90%. Moreover, the mortality at 20 ppm in the series with Cooperia curticei (setting [3]) came out at 100%.
The compound `O=C(NCC(F)(F)c1ncc(-n2cc(C(F)(F)F)cn2)cc1Cl)c1ccccc1C(F)(F)F` [Example 3, N-[2-[3-chloro-5-[4-(trifluoromethyl)pyrazol-1-yl]-2-pyridyl]-2,2-difluoro-ethyl]-2-(trifluoromethyl)benzamide] showed a chromatographic logP in series [1] of 3.62. In addition, the mortality at 20 ppm in the series on Haemonchus contortus (Haemonchus contortus) is 100%. In addition, in the series with Cooperia curticei (Cooperia curticei), the mortality at 4 ppm is at least 90% and the mortality at 20 ppm stood at 100%.
Take `O=C(NCC(F)(F)c1ncc(-n2cc(F)cn2)cc1Cl)c1nccnc1C(F)(F)F` [Example 7]: in series [1] (setting [2]), the chromatographic logP stood at 2.88.
Turning to `Cc1occc1-c1cnc(C(F)(F)CNC(=O)c2ccccc2C(F)(F)F)c(Cl)c1` [Example 2], the chromatographic logP in series [1] (setting [2]) came to 3.53. Further, the mortality at 20 ppm in the series on Haemonchus contortus (setting [5]) worked out at 90%; with Cooperia curticei (setting [3]) it was 100%. For the same compound, in the series with Cooperia curticei (setting [4]), the mortality at 4 ppm was at least 90%.
`O=C(NCC(F)(F)c1ncc(-n2cc(Cl)cn2)cc1Cl)c1ccccc1C(F)(F)F` [Example 12] came in with a chromatographic logP in series [1] of 3.5. Also, the mortality at 20 ppm in the series on Haemonchus contortus (Haemonchus contortus) came out at 100%. Besides, in the series with Cooperia curticei (Cooperia curticei), the mortality at 4 ppm was at least 90% and the mortality at 20 ppm came to 100%.
For the compound `O=C(NCC(F)(F)c1ncc(-c2cnn(CC(F)(F)F)c2)cc1Cl)c1ccccc1C(F)(F)F` [Example 15], the chromatographic logP in series [1] (setting [2]) was 3.1. The mortality at 4 ppm in the series on Cooperia curticei (setting [4]) is at least 90%. Moreover, in the series on Cooperia curticei (setting [3]), the mortality at 20 ppm turned out to be 100%.
As for `O=C(NCC(F)(F)c1ncc(-c2ccoc2)cc1Cl)c1ccccc1C(F)(F)F` [Example 1], in series [1] (LC-UV, acidic range, 0.1% formic acid in water and acetonitrile; read-out: logP a) (HCOOH)), the chromatographic logP was 3.21. For the same compound, in the series with Cooperia curticei (Cooperia curticei), the mortality at 4 ppm was at least 90% and the mortality at 20 ppm is 100%.
For `O=C(NCC(F)(F)c1ncc(-n2cc(C(F)(F)F)cn2)cc1Cl)c1cccnc1C(F)(F)F` [Example 14], the chromatographic logP in series [1] (setting [2]) is 3.24. Also, the mortality at 20 ppm in the series on Haemonchus contortus (setting [5]) and in the series on Cooperia curticei (setting [3]) was 100% throughout. The mortality at 4 ppm with Cooperia curticei (setting [4]) was at least 90%.
Consider `O=C(NCC(F)(F)c1ncc(-n2cc(F)cn2)cc1Cl)c1cccnc1C(F)(F)F` [Example 9], for which the chromatographic logP in series [1] (setting [2]) amounted to 2.7. In the series on Cooperia curticei (setting [4]), the mortality at 4 ppm is at least 90%. Besides, the mortality at 20 ppm with Cooperia curticei (setting [3]) worked out at 100%.
In the case of `O=C(NCC(F)(F)c1ncc(-c2cnn(CC(F)(F)F)c2)cc1Cl)c1cccnc1C(F)(F)F` [Example 16], the chromatographic logP in series [1] (setting [2]) is 2.66. Further, in the series with Cooperia curticei (setting [3]), the mortality at 20 ppm came to 100%.
Turning to `Cn1c(C(F)(F)F)nn(-c2cnc(C(F)(F)CNC(=O)c3ccccc3C(F)(F)F)c(Cl)c2)c1=O` [Example 6], the chromatographic logP in series [1] worked out at 3.32. Also, the mortality at 20 ppm in the series with Haemonchus contortus (Haemonchus contortus) and in the series with Cooperia curticei (Cooperia curticei) was 100% throughout. The mortality at 4 ppm with Cooperia curticei (Cooperia curticei) was at least 90%.
In the case of `O=C(NCC(F)(F)c1ncc(-n2cc(C(F)(F)F)cn2)cc1Cl)c1nccnc1C(F)(F)F` [Example 10], the chromatographic logP in series [1] (setting [2]) was determined as 3.43. Besides, the mortality at 20 ppm in the series on Haemonchus contortus (setting [5]) and with Cooperia curticei (setting [3]) was 100% throughout. Moreover, in the series on Cooperia curticei (setting [4]), the mortality at 4 ppm is at least 90%.
For the compound `O=C(NCC(F)(F)c1ncc(-n2cc(Cl)cn2)cc1Cl)c1cccnc1C(F)(F)F` [Example 18], the chromatographic logP in series [1] (setting [2]) amounted to 3.07. Further, the mortality at 20 ppm with Haemonchus contortus (setting [5]) and with Cooperia curticei (setting [3]) was 100% each time. For the same compound, in the series on Cooperia curticei (setting [4]), the mortality at 4 ppm was at least 90%.
With `O=C(NCC(F)(F)c1ncc(-n2ccc(C(F)(F)F)n2)cc1Cl)c1nccnc1C(F)(F)F` [Example 8], the chromatographic logP in series [1] was determined as 3.49. Besides, in the series on Cooperia curticei (Cooperia curticei), the mortality at 4 ppm was at least 90% and the mortality at 20 ppm turned out to be 100%.
Turning to `O=C(NCC(F)(F)c1ncc(-n2cc(F)cn2)cc1Cl)c1ccccc1C(F)(F)F` [Example 5], the chromatographic logP in series [1] (setting [2]) was found to be 3.12. The mortality at 20 ppm with Haemonchus contortus (setting [5]) was 90%; with Cooperia curticei (setting [3]), 100%. For the same compound, the mortality at 4 ppm in the series with Cooperia curticei (setting [4]) was at least 90%.
With `Cn1ccc(-c2cnc(C(F)(F)CNC(=O)c3ccccc3C(F)(F)F)c(Cl)c2)c1` [Example 4], the chromatographic logP in series [1] (setting [2]) stood at 3.22. In the series on Cooperia curticei (setting [4]), the mortality at 4 ppm was at least 90%.
